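Grown in 96-well plates, cells were treated for 48 hours with each compound at five concentrations. Insufficient inhibition: endpoint recorded as highest concentration tested. The concentration for 50% growth inhibition is given as GI50.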 The source made the active and inactive calls. Cut-off read from the data, not from the text of the source: active = GI50 up to about 1.1 µM and inactive = higher.
What was measured:
Test in all cases: growth of human tumour cells (NCI), 48 h
786-0 = system: 786-0
A498 = system: A498
CAKI-1 = system: CAKI-1
COLO 205 = system: COLO 205
DU-145 = system: DU-145
HCT-116 = system: HCT-116
HCT-15 = system: HCT-15
HT-29 = system: HT-29
MDA-MB-435 = system: MDA-MB-435
OVCAR-8 = system: OVCAR-8
SF-295 = system: SF-295
SK-MEL-2 = system: SK-MEL-2
SN12C = system: SN12C
SNB-19 = system: SNB-19
UO-31 = system: UO-31

Row | Compound | GI50 (786-0) | GI50 (A498) | GI50 (CAKI-1) | GI50 (COLO 205) | GI50 (DU-145) | GI50 (HCT-116) | GI50 (HCT-15) | GI50 (HT-29) | GI50 (MDA-MB-435) | GI50 (OVCAR-8) | GI50 (SF-295) | GI50 (SK-MEL-2) | GI50 (SN12C) | GI50 (SNB-19) | GI50 (UO-31)
1 | OCC1OC(n2cnc3c2N=CNC[C@H]3O)C(Cl)C1O (stereo not given in full) | > 100 µM (inactive) | > 100 µM (inactive) | > 100 µM (inactive) | > 100 µM (inactive) | > 100 µM (inactive) | > 100 µM (inactive) | > 100 µM | > 100 µM (inactive) | > 100 µM (inactive) | > 100 µM (inactive) | > 100 µM (inactive) | > 100 µM (inactive) | > 100 µM (inactive) | > 100 µM (inactive) | > 100 µM (inactive)
2 | CC1(C)CCCCCCCCCC(C)(CCCO)C1=O (stereo not given) | 16.9 µM (inactive) | 18.5 µM (inactive) | 17.7 µM (inactive) | 16.3 µM (inactive) | 17.2 µM (inactive) | 17.3 µM (inactive) | 17.8 µM | 13.7 µM (inactive) | 18.2 µM (inactive) | 18.4 µM (inactive) | 18.6 µM (inactive) | 15 µM (inactive) | 18.2 µM (inactive) | 17.8 µM (inactive) | 12 µM (inactive)
3 | COC(=O)c1c(OC(C)=O)ccc2c1c1c(OC(C)=O)c3ccccc3c(OC(C)=O)c1n2Cc1ccccc1 | 12.1 µM (inactive) | 13.7 µM (inactive) | 9.62 µM (inactive) | 7.91 µM (inactive) | 11.1 µM (inactive) | 3.96 µM (inactive) | 4.78 µM | 12.2 µM (inactive) | 9.95 µM (inactive) | 9.44 µM (inactive) | 2.55 µM (inactive) | 1.37 µM (inactive) | 10.5 µM (inactive) | 9.51 µM (inactive) | 2.21 µM (inactive)
4 | O=C(ON=C1c2ccccc2C(Br)C(Br)c2ccccc21)c1ccccc1 (stereo not given) | 9.62 µM (inactive) | 25.2 µM (inactive) | 9.48 µM (inactive) | 15.8 µM (inactive) | 17.5 µM (inactive) | 14.6 µM (inactive) | 17.6 µM | 17.1 µM (inactive) | 17.3 µM (inactive) | 9.18 µM (inactive) | 18.5 µM (inactive) | 30.2 µM (inactive) | 20.7 µM (inactive) | 20.7 µM (inactive) | 3.79 µM (inactive)
5 | C=C1C(=O)[C@]23C[C@H]1C[C@@H](O)[C@H]2[C@]1(COC3=O)[C@@H](OC(C)=O)CC[C@@](C)(COC(C)=O)[C@H]1C=O [LOXOTHYRIN A] | 36.4 µM (inactive) | > 50 µM (inactive) | 9.38 µM (inactive) | 8.53 µM (inactive) | > 50 µM (inactive) | 37 µM (inactive) | > 50 µM | > 50 µM (inactive) | > 50 µM (inactive) | > 50 µM (inactive) | > 50 µM (inactive) | > 50 µM (inactive) | > 50 µM (inactive) | > 50 µM (inactive) | > 50 µM (inactive)
6 | O=C1OC(C(O)C(O)C(O)CO)C(O)C1O (stereo not given) | > 100 µM (inactive) | > 100 µM (inactive) | > 100 µM (inactive) | > 100 µM (inactive) | > 100 µM (inactive) | > 100 µM (inactive) | > 100 µM | > 100 µM (inactive) | > 100 µM (inactive) | > 100 µM (inactive) | > 100 µM (inactive) | > 100 µM (inactive) | > 100 µM (inactive) | > 100 µM (inactive) | > 100 µM (inactive)
7 | CC(C)=CCc1c(O)cc2oc(-c3ccc(O)cc3O)cc(=O)c2c1O | 26 µM (inactive) | 44.2 µM (inactive) | 28.5 µM (inactive) | 28.2 µM (inactive) | 29.3 µM (inactive) | 25.1 µM (inactive) | 23 µM | 23.1 µM (inactive) | 26.4 µM (inactive) | 36.7 µM (inactive) | 31.6 µM (inactive) | 25.4 µM (inactive) | 28.8 µM (inactive) | 40.6 µM (inactive) | 4.32 µM (inactive)
8 | O=C1c2ccccc2C(=O)c2c1ccc1nc3c(nc21)-c1c2ccccc2cc2cccc-3c12 | 21.5 µM (inactive) | > 50.9 µM (inactive) | 23.4 µM (inactive) | 90.8 µM (inactive) | 29.2 µM (inactive) | 5.56 µM (inactive) | 29.4 µM | 27 µM (inactive) | 18.6 µM (inactive) | 27.4 µM (inactive) | 21.4 µM (inactive) | 68.9 µM (inactive) | 35.8 µM (inactive) | 38.4 µM (inactive) | 17.6 µM (inactive)
9 | CCC/C(Cl)=N\OC(=O)Nc1ccc(Br)cc1 | 7.24 µM (inactive) | 16.9 µM (inactive) | 4.36 µM (inactive) | 2.73 µM (inactive) | 13.8 µM (inactive) | 9.48 µM (inactive) | 2.56 µM | 17.7 µM (inactive) | 14.5 µM (inactive) | 14.6 µM (inactive) | 14.9 µM (inactive) | 15 µM (inactive) | 14 µM (inactive) | 29.5 µM (inactive) | 13 µM (inactive)
10 | CC1=NN(c2ccccc2)C(=O)C1/N=N/c1ccc([As](=O)(O)O)c(O)c1 (stereo not given) | > 100 µM (inactive) | > 100 µM (inactive) | > 100 µM (inactive) | > 100 µM (inactive) | > 100 µM (inactive) | > 100 µM (inactive) | > 100 µM | > 100 µM (inactive) | > 100 µM (inactive) | > 100 µM (inactive) | > 100 µM (inactive) | > 100 µM (inactive) | > 100 µM (inactive) | > 100 µM (inactive) | > 100 µM (inactive)
11 | C=CCOCn1cnc2c(N)ncnc21 | > 100 µM (inactive) | > 100 µM (inactive) | > 100 µM (inactive) | > 100 µM (inactive) | > 100 µM (inactive) | > 100 µM (inactive) | > 100 µM | > 100 µM (inactive) | > 100 µM (inactive) | > 100 µM (inactive) | > 100 µM (inactive) | > 100 µM (inactive) | > 100 µM (inactive) | > 100 µM (inactive) | > 100 µM (inactive)
12 | Cc1nn(C(=O)c2ccccc2O)c2c1C(c1ccc(O)cc1O)SC(=N)N2 (stereo not given) | 6.85 µM (inactive) | 3.61 µM (inactive) | 4.29 µM (inactive) | 9.35 µM (inactive) | 8.28 µM (inactive) | 3.83 µM (inactive) | 3.66 µM | > 10 µM (inactive) | 4.05 µM (inactive) | 6.04 µM (inactive) | > 10 µM (inactive) | > 10 µM (inactive) | 9.71 µM (inactive) | 4.86 µM (inactive) | 2.84 µM (inactive)
13 | O=C(c1ccccc1)N(C(=O)c1ccccc1)c1nc(SCc2ccccc2)ns1 | 26.7 µM (inactive) | 27.9 µM (inactive) | 38.2 µM (inactive) | 18.7 µM (inactive) | 30.9 µM (inactive) | 23.8 µM (inactive) | 23.9 µM | 25.5 µM (inactive) | 29.4 µM (inactive) | 36.6 µM (inactive) | 25.1 µM (inactive) | 21.9 µM (inactive) | 25.2 µM (inactive) | 50.6 µM (inactive) | 6.11 µM (inactive)
14 | CC(=O)/C=C/C=C(\C)CC/C=C(\C)CC(C)C | 34 µM (inactive) | 22 µM (inactive) | 40.8 µM (inactive) | 20.2 µM (inactive) | 58.6 µM (inactive) | 21.8 µM (inactive) | 16 µM | 30.1 µM (inactive) | 27.9 µM (inactive) | 23.7 µM (inactive) | 30.8 µM (inactive) | 20 µM (inactive) | 31.4 µM (inactive) | 42.4 µM (inactive) | 76.6 µM (inactive)
15 | CC1=Nn2c(nc3sc4c(c3c2=O)CCCC4)SC1 | > 81.3 µM (inactive) | > 50.1 µM (inactive) | > 100 µM (inactive) | > 87.9 µM (inactive) | > 86.1 µM (inactive) | 82 µM (inactive) | 52.6 µM | > 88.7 µM (inactive) | > 77.1 µM (inactive) | > 100 µM (inactive) | > 100 µM (inactive) | > 100 µM (inactive) | > 78.5 µM (inactive) | 90.2 µM (inactive) | 37.8 µM (inactive)
16 | Cc1ccc(/C(O)=C/c2nc3ccccc3oc2=O)cc1 | 85.3 µM (inactive) | 78.3 µM (inactive) | > 100 µM (inactive) | 87.7 µM (inactive) | > 100 µM (inactive) | 75.3 µM (inactive) | 92.7 µM | > 100 µM (inactive) | 25.6 µM (inactive) | 38.4 µM (inactive) | 59.6 µM (inactive) | > 100 µM (inactive) | > 100 µM (inactive) | > 100 µM (inactive) | 40.1 µM (inactive)
17 | CC(=O)OCC12C(OC(C)=O)C(=O)C3C(OC(C)=O)C14OC3(C)COC(=O)c1cccnc1C(C)C(C)C(=O)OC(C(OC(C)=O)C2OC(C)=O)C4(C)O (stereo not given) | > 100 µM (inactive) | > 100 µM (inactive) | > 100 µM (inactive) | > 100 µM (inactive) | > 100 µM (inactive) | > 100 µM (inactive) | > 100 µM | > 100 µM (inactive) | > 100 µM (inactive) | > 100 µM (inactive) | > 100 µM (inactive) | > 100 µM (inactive) | > 100 µM (inactive) | > 100 µM (inactive) | > 100 µM (inactive)
18 | COc1cc2c(cc1OCCCC(=O)Nc1cc(C(=O)Nc3cc(C(=O)NCCCN(C)C)n(C)n3)n(C)n1)N=CC1CCCN1C2=O (stereo not given) | 16.3 µM (inactive) | 0.411 µM (active) | 16.8 µM (inactive) | 13.5 µM (inactive) | 16.4 µM (inactive) | 16 µM (inactive) | 16.1 µM | 17 µM (inactive) | 16.8 µM (inactive) | 22 µM (inactive) | 36.1 µM (inactive) | 16.4 µM (inactive) | 16.1 µM (inactive) | 12.6 µM (inactive) | 16.7 µM (inactive)

Source: ChEMBL document CHEMBL1201862, “PubChem BioAssay data set” (2004)
